Test results as given in article PMC9398908, “GLP-1-mediated delivery of tesaglitazar improves obesity and glucose metabolism in male mice” (Nature Metabolism, 2022).
“And” between values parts separate entries of the source, which are not always exact repeats. Equal entries are not always repeated.

Columns and labels:
[1] = tested on: C57BL/6J DIO mice; assay: Fasting blood glucose, insulin and HOMA-IR in DIO mice (Fig. 2e,f; Extended Data Fig. 3c); assay type: in vivo, mouse; details: for HOMA IR: Suppl. Fig. 3c
Protocol: Glp1r^−/− mice were kindly provided by D. Drucker (University of Toronto, Canada). All wildtype and knockout mice used in our studies were in-house bred on a C57BL/6J background. Mice were double-housed and kept in a constant environment with the ambient temperature set to 22 ± 2 °C with constant humidity (45–65%) and a 12 h/12 h light/dark cycle with lights off from 06:00 until 18:00. For studies in DIO mice, male C57BL/6J mice were fed with a high-fat diet comprising 58% kilocalories from fat (D12331, Research Diets). db/db mice were fed with a normal chow diet (T1314, Altromin GmbH) throughout the study. At the beginning of each experiment, mice were equally distributed into experimental groups according to their body weight and body composition. All animal studies were approved by the State of Bavaria, Germany, or the Insitutional Animal Care and Use Committee of the University of Cincinnati, OH, USA and conducted on the basis of the underlying animal welfare law of the respective countries. Compounds were dissolved in PBS and were s.c. administered with a volume of 5 μl g^−1 body weight in the indicated doses between 15:00 and 16:00.

[2] = tested on: C57BL/6J DIO mice; assay: Urinary albumin:creatinine ratio in DIO mice (Extended Data Fig. 2g); assay type: in vivo, mouse; details: 14-day treatment, 50 nmol kg−1 per day, in words
Description: Frozen urine samples from heterozygous GIPR^dn mice in a CD1 background (n = 3) served as positive controls. […] For each treatment group, uACR was computed as a ratio of urinary albumin (mg ml^−1) to urinary creatinine (mg ml^−1).

- urinary albumin:creatinine ratio [2]: likewise not changed
Structure (SMILES): CCO[C@@H](Cc1ccc(OCCc2ccc(OS(C)(=O)=O)cc2)cc1)C(=O)O [tesaglitazar, (S)-2-ethoxy-3-(4-(4-((methylsulfonyl)oxy)phenethoxy)phenyl) propanoic acid]
- blood glucose ([1]; DIO mice, Figure 2e, individual mice): 110 mg/dL and 133 mg/dL and 143 mg/dL and 112 mg/dL and 107 mg/dL and 150 mg/dL and 108 mg/dL
- insulin ([1]; DIO mice, Figure 2f, individual mice): 1.06 ng/mL and 1.72 ng/mL and 0.73 ng/mL and 1.32 ng/mL and 2.56 ng/mL and 2.63 ng/mL and 1.88 ng/mL and 1.65 ng/mL
- HOMA IR ([1]; animal 1 of the group): 9.08
- HOMA IR ([1]; animal 2 of the group): 17.60
- HOMA IR ([1]; animal 3 of the group): 17.24
- HOMA IR ([1]; animal 4 of the group): 17.30
- HOMA IR ([1]; animal 5 of the group): 10.92
- HOMA IR ([1]; animal 6 of the group): 7.15
- HOMA IR ([1]; animal 7 of the group): 14.05
- HOMA IR ([1]; animal 8 of the group): 6.44
